Source: the NIST ThermoML archive (doi:10.1016/j.jct.2006.09.012)
Where “and” joins values, the source holds several entries; their conditions need not be identical. Equal values may be shown once.

Settings: Gas, Buoyancy - hydrostatic balance with magnetic suspension - two sinkers

N#N [nitrogen]
Settings | mass density
250 K, 4032 kPa | 55.8107 kg/m3 [middle of 5 runs]
250 K, 7922 kPa | 111.201 kg/m3
250 K, 7922.1 kPa | 111.201 kg/m3
250 K, 11944 kPa | 167.531 kg/m3 and 167.53 kg/m3
250 K, 15945 kPa | 220.078 kg/m3 and 220.076 kg/m3
250 K, 15946 kPa | 220.079 kg/m3
250 K, 19672 kPa | 264.436 kg/m3 [middle of 5 runs]
250 K, 23918 kPa | 309.033 kg/m3 and 309.035 kg/m3 and 309.038 kg/m3
250 K, 23919 kPa | 309.043 kg/m3
250 K, 23920 kPa | 309.056 kg/m3
250 K, 23921 kPa | 309.062 kg/m3
250 K, 27922 kPa | 345.621 kg/m3 [middle of 4 runs]
250 K, 27923 kPa | 345.629 kg/m3 and 345.627 kg/m3
250 K, 31914 kPa | 377.498 kg/m3 and 377.5 kg/m3
250 K, 31915 kPa | 377.505 kg/m3 and 377.504 kg/m3
250 K, 31916 kPa | 377.516 kg/m3 and 377.513 kg/m3
273.16 K, 3969.2 kPa | 49.6242 kg/m3 [middle of 4 runs]
273.16 K, 3969.3 kPa | 49.6242 kg/m3
273.16 K, 6172.5 kPa | 77.4431 kg/m3 and 77.4438 kg/m3 and 77.4433 kg/m3
273.16 K, 6172.6 kPa | 77.4441 kg/m3 and 77.4442 kg/m3
273.16 K, 8165.1 kPa | 102.478 kg/m3 and 102.48 kg/m3
273.16 K, 8165.2 kPa | 102.48 kg/m3 and 102.479 kg/m3
273.16 K, 12168 kPa | 151.567 kg/m3 [middle of 5 runs]
273.16 K, 16376 kPa | 200.13 kg/m3 [middle of 5 runs]
273.16 K, 20308 kPa | 241.736 kg/m3 and 241.739 kg/m3
273.16 K, 20309 kPa | 241.746 kg/m3 and 241.745 kg/m3 and 241.743 kg/m3
273.16 K, 24524 kPa | 281.91 kg/m3
273.16 K, 24525 kPa | 281.913 kg/m3 and 281.915 kg/m3
273.16 K, 24526 kPa | 281.922 kg/m3 and 281.921 kg/m3
273.16 K, 28792 kPa | 318.055 kg/m3
273.16 K, 28793 kPa | 318.057 kg/m3 and 318.058 kg/m3
273.16 K, 28794 kPa | 318.067 kg/m3 and 318.065 kg/m3
273.16 K, 33963 kPa | 356.391 kg/m3
273.16 K, 33964 kPa | 356.402 kg/m3 and 356.397 kg/m3
273.16 K, 33965 kPa | 356.407 kg/m3
273.16 K, 33966 kPa | 356.413 kg/m3
293.14 K, 99.9 kPa | 1.1487 kg/m3 [middle of 4 runs]
293.14 K, 199.8 kPa | 2.2978 kg/m3 and 2.2977 kg/m3 and 2.2976 kg/m3
293.14 K, 299.7 kPa | 3.447 kg/m3 and 3.4472 kg/m3 and 3.4473 kg/m3
293.14 K, 499.5 kPa | 5.7475 kg/m3 and 5.7477 kg/m3 and 5.7476 kg/m3
293.14 K, 749.2 kPa | 8.6261 kg/m3 and 8.626 kg/m3
293.14 K, 749.3 kPa | 8.6261 kg/m3
293.14 K, 999 kPa | 11.5072 kg/m3 [middle of 5 runs]
293.14 K, 1498.5 kPa | 17.2762 kg/m3 [middle of 6 runs]
293.14 K, 1998 kPa | 23.0541 kg/m3 and 23.0539 kg/m3
293.14 K, 2997.1 kPa | 34.6233 kg/m3 and 34.6235 kg/m3 and 34.6236 kg/m3
293.14 K, 3996.1 kPa | 46.1976 kg/m3 [middle of 5 runs]
293.14 K, 4995.1 kPa | 57.7592 kg/m3
293.14 K, 4995.2 kPa | 57.7597 kg/m3 and 57.7599 kg/m3
293.14 K, 5994.2 kPa | 69.2908 kg/m3 and 69.291 kg/m3 and 69.2909 kg/m3
293.14 K, 5994.3 kPa | 69.2914 kg/m3 and 69.2915 kg/m3
293.15 K, 4004.8 kPa | 46.2934 kg/m3 [middle of 6 runs]
293.15 K, 4004.9 kPa | 46.2937 kg/m3
293.15 K, 5964.9 kPa | 68.9512 kg/m3 [middle of 5 runs]
293.15 K, 7948.6 kPa | 91.6869 kg/m3 [middle of 4 runs]
293.15 K, 7948.8 kPa | 91.689 kg/m3 and 91.6881 kg/m3
293.15 K, 11980 kPa | 136.716 kg/m3 [middle of 7 runs]
293.15 K, 15954 kPa | 178.78 kg/m3
293.15 K, 15955 kPa | 178.782 kg/m3 [middle of 7 runs]
293.15 K, 19567 kPa | 214.452 kg/m3 and 214.453 kg/m3
293.15 K, 19568 kPa | 214.457 kg/m3
293.15 K, 24175 kPa | 256.042 kg/m3
293.15 K, 24176 kPa | 256.052 kg/m3 [middle of 4 runs]
293.15 K, 28412 kPa | 290.447 kg/m3 [middle of 4 runs]
293.15 K, 28413 kPa | 290.455 kg/m3 and 290.453 kg/m3
293.15 K, 32144 kPa | 317.902 kg/m3
293.15 K, 32145 kPa | 317.909 kg/m3 and 317.905 kg/m3
293.15 K, 32146 kPa | 317.912 kg/m3
293.15 K, 32147 kPa | 317.922 kg/m3 and 317.917 kg/m3
293.15 K, 32148 kPa | 317.926 kg/m3
320 K, 4775.8 kPa | 50.1489 kg/m3 and 50.1482 kg/m3 and 50.1481 kg/m3
320 K, 4775.9 kPa | 50.1492 kg/m3 and 50.1493 kg/m3 and 50.149 kg/m3
320 K, 10135 kPa | 104.999 kg/m3 and 105.001 kg/m3 and 105.002 kg/m3
320 K, 20210 kPa | 198.799 kg/m3 [middle of 6 runs]
339.98 K, 499.5 kPa | 4.9482 kg/m3 and 4.9481 kg/m3 and 4.948 kg/m3
339.98 K, 999 kPa | 9.8915 kg/m3 and 9.8916 kg/m3
339.98 K, 1998 kPa | 19.7585 kg/m3 and 19.7583 kg/m3 and 19.7584 kg/m3
339.98 K, 3996 kPa | 39.3819 kg/m3 [middle of 4 runs]
339.98 K, 5994.1 kPa | 58.7959 kg/m3 and 58.796 kg/m3
339.99 K, 5081.9 kPa | 49.9596 kg/m3
339.99 K, 5082 kPa | 49.9602 kg/m3 and 49.9596 kg/m3
339.99 K, 5082.1 kPa | 49.9616 kg/m3
339.99 K, 21784 kPa | 198.014 kg/m3
340 K, 5082 kPa | 49.96 kg/m3
340 K, 10840 kPa | 104.588 kg/m3 and 104.589 kg/m3
340 K, 21784 kPa | 198.008 kg/m3 [middle of 5 runs]
340.01 K, 3874.6 kPa | 38.1897 kg/m3 [middle of 6 runs]
340.01 K, 5932.3 kPa | 58.1965 kg/m3 and 58.1955 kg/m3
340.01 K, 5932.4 kPa | 58.1962 kg/m3
340.01 K, 7789.6 kPa | 75.9992 kg/m3
340.01 K, 7789.7 kPa | 76.0004 kg/m3 [middle of 5 runs]
